From publication PMC8999917, “Structure–Activity Relationship of Synthetic Ginkgolic Acid Analogs for Treating Type 2 Diabetes by PTPN9 Inhibition” (International Journal of Molecular Sciences, 2022) come the findings set out here.

Assay [1] has as its system AMPK phosphorylation. Description: Western blot of AMPK phosphorylation in mature 3T3-L1 adipocytes. Format: cell-based, mouse. The conditions noted are these: 5 or 10 µM for 1 h. The method, then: To further elucidate the pathway involved in 1e-mediated glucose uptake promotion, AMPK and Akt phosphorylation in mature 3T3-L1 adipocytes was evaluated via Western blotting following treatment with 5 or 10 µM 1e for 1 h.
The expression levels of glucose uptake-related proteins were determined via Western blotting, as previously described. In brief, differentiated 3T3-L1 cells were plated in six-well plates at a 1.5 × 10^4 cells/well density in a final volume of 2 mL. Then, the cells were incubated in the presence of DMSO or different concentrations of the compounds and harvested using a RIPA buffer (Sigma-Aldrich, Saint Louis, MS, USA) and a protease inhibitor cocktail (Roche Korea, Seoul, Korea) after 1 h of incubation. Equivalent amounts of proteins (20 µg) from each lysate were separated by 10% SDS-PAGE and transferred onto PVDF membranes (Merk KgaA, Darmstadt, Germany), where they were maintained for 120 min at 200 mA. The membranes were blocked with 5% skim milk for 1 h at room temperature in 0.1% TBST and then probed with primary antibodies at different concentrations in 0.1% BSA overnight at 4 °C according to the manufacturer’s instructions. Secondary antibodies were added to the membranes at a concentration of 1:2000 for 1 h at room temperature, and immunoreactive bands were detected via ECL (GE Healthcare Korea Co., Ltd., Incheon, Korea). […]
A general note: A western blot detects proteins with antibodies after separation by electrophoresis.

The subject of assay [2] is Akt phosphorylation. Description: Western blot of Akt phosphorylation in C2C12 myotubes. Format: cell-based, mouse. The source says: To further investigate the mechanism of action of 1e, we evaluated its effects on AMPK and AKT phosphorylation in C2C12 myotubes. […] In line with the results obtained in 3T3-L1 cells, in the absence of insulin, 1e had no effects on basal p-Akt expression levels (Figure 6A). Since insulin plays an important role in regulating glucose metabolism through the redistribution of GLUT4 from intracellular vesicles to the cell surface, it is important to describe the interaction between 1e and insulin in the Akt pathway. […] Next, we evaluated the protective effects of 1e against PA-induced insulin resistance in C2C12 myotubes. To generate an insulin resistance model, C2C12 myotubes were treated with 250 µM PA in a serum-free medium for 16 h. Akt phosphorylation levels in PA-treated C2C12 cells decreased by 50% compared to levels in normal C2C12 cells (Figure 6C). Furthermore, in the presence of insulin and GA, Akt phosphorylation levels decreased only by 30% compared to levels in normal cells. […] The expression levels of glucose uptake-related proteins were determined via Western blotting, as previously described. […] Secondary antibodies were added to the membranes at a concentration of 1:2000 for 1 h at room temperature, and immunoreactive bands were detected via ECL (GE Healthcare Korea Co., Ltd., Incheon, Korea). […]

With `CCCCCCCCCCCCCOc1cccc(O)c1C(=O)O` [Compound 1e], the AMPK phosphorylation result in assay [1] is “significantly induced AMPK phosphorylation in a concentration-dependent manner”. Further, in assay [2] (100 nM insulin), the “Akt phosphorylation on co-treatment with insulin” value is reported as “synergistic Akt phosphorylation-improving effects with insulin”. The “basal p-Akt expression levels” value in assay [2] (absence of insulin) is reported as “no effects”.
